Measurements as given in patent US20240207198A1, “ELECTROSPUN STRUCTURES HAVING A PHARMACEUTICAL AND METHODS OF MAKING AND USING THE SAME” (NFS IP Holdings, LLC, priority 2020, published 2024).
Counter-ions that a name gives are not always drawn.

Columns and labels:
[1] = Oral vs. sublingual delivery of cannabidiol in a porcine model (plasma concentration by HPLC); format: in vivo, Yorkshire pigs; settings: sublingual electrospun polyethylene oxide fiber scaffold ("strip") vs oral "gummy"; 10 mg cannabidiol each; representative pig 7-18; blood 3-120 min; FIG. 3
Protocol: Four healthy Yorkshire pigs were selected to receive both oral and sublingual administrations of cannabidiol (i.e., each animal received both an oral administration and a sublingual administration separated by 48 hours). For the sublingual administration, a scaffold comprising fibers as described herein was used for each animal. Specifically, the fibers were electrospun using a polymer solution comprising cannabidiol and 13 wt % 100,000 molecular weight polyethylene oxide dissolved in dichloromethane. The cannabidiol was dispersed within the resulting electrospun polyethylene oxide fibers, as described herein. The resulting electrospun polyethylene oxide fibers comprised 40 wt % cannabidiol (relative to the polyethylene oxide mass) and 50 wt % confectionary sugar (i.e., for every 10 mg of polyethylene oxide, 4 mg of cannabidiol and 5 mg of confectionary sugar were added).
(§1) The scaffold was placed under the tongue of each animal and allowed to dissolve in place. A catheter was placed in the animal's vein and used to withdraw blood at baseline and at 3, 9, 15, 30, 45, 60, and 120 minutes post-administration. […]
Each blood sample was analyzed using high-performance liquid chromatography (HPLC) to determine the plasma concentration of cannabidiol in ng/mL. […]

[2] = Oral vs. sublingual delivery of sildenafil citrate in a porcine model (plasma concentration by HPLC); format: in vivo, Yorkshire pigs; settings: sublingual electrospun polyethylene oxide fiber scaffold ("strip") vs oral "pill", 25 mg sildenafil citrate each, representative pig 4-17, FIG. 4
Protocol: Four healthy Yorkshire pigs were selected to receive both oral and sublingual administrations of sildenafil citrate (i.e., each animal received both an oral administration and a sublingual administration separated by 48 hours). For the sublingual administration, a scaffold comprising fibers as described herein was used for each animal. Specifically, the fibers comprised were electrospun using a polymer solution comprising sildenafil citrate and 13 wt % 100,000 molecular weight polyethylene oxide dissolved in dichloromethane. The sildenafil citrate was dispersed within the resulting electrospun polyethylene oxide fibers, as described herein. The resulting electrospun polyethylene oxide fibers comprised 25 wt % sildenafil citrate (relative to the polyethylene oxide mass) and 50 wt % confectionary sugar (i.e., for every 10 mg of polyethylene oxide, 2.5 mg of sildenafil citrate and 5 mg of confectionary sugar were added).
as §1
Each blood sample was analyzed using HPLC to determine the plasma concentration of sildenafil citrate in ng/mL. […]

| SMILES | plasma concentration of cannabidiol, sublingual compared to oral administration [1] | duration of the higher plasma concentration of sildenafil citrate, sublingual compared to oral administration [2] | plasma concentration of sildenafil citrate, sublingual compared to oral administration ([2]; blood 3-120 min) |
| --- | --- | --- | --- |
| C=C(C)[C@@H]1CCC(C)=C[C@H]1c1c(O)cc(CCCCC)cc1O [cannabidiol] | higher plasma concentration in a shorter period of time |  |  |
| CCCc1nn(C)c2c(=O)[nH]c(-c3cc(S(=O)(=O)N4CCN(C)CC4)ccc3OCC)nc12 [sildenafil citrate] |  | maintained the higher plasma concentration over a longer period of time | higher plasma concentration in a shorter period of time |
